The target of experiment [1] is T1, NS3-NS4 (Hepatitis C virus genotype 1a, UniProt P27958). Nature of the experiment: NS3-NS4 activity, IC50 (Example 37, Table 8). It counts as biochemical.
The target in experiment [2] is T1, NS3-NS4. Description: cell-based. The settings on record: EC50, NS3-NS4 activity.

13 molecules from patent US20090155209A1, “NOVEL MACROCYCLIC INHIBITORS OF HEPATITIS C VIRUS REPLICATION” (priority 2007, published 2009) can be followed below.

One may read the IC50 as the concentration that gives 50% inhibition. For orientation: EC50 means the concentration that produces a half-maximal response. Read a high EC50 as lower potency in that assay.

T1 sequence (P27958 1027-1657): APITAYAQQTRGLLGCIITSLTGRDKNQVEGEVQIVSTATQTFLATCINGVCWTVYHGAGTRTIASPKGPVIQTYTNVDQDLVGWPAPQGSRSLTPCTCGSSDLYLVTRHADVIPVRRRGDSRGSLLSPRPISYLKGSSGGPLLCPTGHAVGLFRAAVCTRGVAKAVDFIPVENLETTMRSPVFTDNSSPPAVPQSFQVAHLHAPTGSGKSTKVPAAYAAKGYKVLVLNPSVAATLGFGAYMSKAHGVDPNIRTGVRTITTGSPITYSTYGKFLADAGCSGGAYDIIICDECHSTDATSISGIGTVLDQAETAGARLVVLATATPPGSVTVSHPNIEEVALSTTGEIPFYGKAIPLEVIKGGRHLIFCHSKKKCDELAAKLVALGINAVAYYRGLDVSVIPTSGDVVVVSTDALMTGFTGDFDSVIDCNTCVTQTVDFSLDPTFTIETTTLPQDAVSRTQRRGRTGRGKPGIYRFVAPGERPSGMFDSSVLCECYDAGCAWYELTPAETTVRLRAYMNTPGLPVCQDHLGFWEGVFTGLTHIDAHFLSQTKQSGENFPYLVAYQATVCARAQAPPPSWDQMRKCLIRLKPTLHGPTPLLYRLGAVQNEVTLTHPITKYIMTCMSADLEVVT
T1 sequence (P27958 1658-1711): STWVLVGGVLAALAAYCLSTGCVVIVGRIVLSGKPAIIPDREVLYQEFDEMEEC

Take `CN(C(=O)N[C@H]1CCCCC/C=C\[C@@H]2C[C@@]2(C(=O)NS(=O)(=O)C2CC2)NC(=O)[C@@H]2C[C@@H](OC(=O)N3Cc4cccc(F)c4C3)CN2C1=O)C(C)(C)C` [Compound 407, (2R,6S,13aS,14aR,16aS,Z)-6-(3-tert-butyl-3-methylureido)-14a-(cyclopropylsulfonylcarbamoyl)-5,16-dioxo-1,2,3,5,6,7,8,9,10,11,13a,14,14a,15,16,16a-hexadecahydrocyclopropa[e]pyrrolo[1,2-a][1,4]diazacyclopentadecin-2-yl 4-fluoroisoindoline-2-carboxylate]: the IC50 at NS3-NS4 [1] is below 100 nM. The EC50 on NS3-NS4 [2] is below 100 nM.

At NS3-NS4 [1], `O=C1N[C@]2(C(=O)NS(=O)(=O)C3CC3)C[C@H]2/C=C\CCC(F)(F)CC[C@H](NC(=O)C2(C(F)(F)F)CC2)C(=O)N2C[C@H](OC(=O)N3Cc4cccc(F)c4C3)C[C@@H]12` [Compound 408] yielded an IC50 below 100 nM. The molecule also registered an EC50 at NS3-NS4 [2] below 100 nM.

For `O=C1N[C@]2(C(=O)NS(=O)(=O)C3CC3)C[C@H]2/C=C\CCC(F)(F)CC[C@H](NC(=O)C2(C(F)(F)F)CC2)C(=O)N2C[C@H](OC(=O)N3Cc4ccccc4C3)C[C@@H]12` [Compound 409], the IC50 against NS3-NS4 [1] was below 100 nM. For the same molecule, the EC50 on NS3-NS4 [2] was below 100 nM.

Molecule `O=C(N[C@H]1CCCCC/C=C\[C@@H]2C[C@@]2(C(=O)NS(=O)(=O)C2CC2)NC(=O)[C@@H]2C[C@@H](OC(=O)N3Cc4ccc(F)cc4C3)CN2C1=O)OC1CCOCC1` [Compound 410] yielded an IC50 at NS3-NS4 [1] below 100 nM. On NS3-NS4 [2], this molecule yielded an EC50 of 100 to 1000 nM.

Regarding `O=C(N[C@H]1CCCCC/C=C\[C@@H]2C[C@@]2(C(=O)NS(=O)(=O)C2CC2)NC(=O)[C@@H]2C[C@@H](OC(=O)N3Cc4cccc(Cl)c4C3)CN2C1=O)OC1CCOCC1` [Compound 411], the IC50 at NS3-NS4 [1] is below 100 nM. Moreover, the EC50 at NS3-NS4 [2] is below 100 nM.

Molecule `O=C(N[C@H]1CCCCC/C=C\[C@@H]2C[C@@]2(C(=O)NS(=O)(=O)C2CC2)NC(=O)[C@@H]2C[C@@H](OC(=O)N3Cc4cccc(F)c4C3)CN2C1=O)OC1CCOC1` (some centres unmarked) [Compound 412] showed an IC50 against NS3-NS4 [1] below 100 nM. The EC50 on NS3-NS4 [2] is below 100 nM.

Molecule `O=C(N[C@H]1CCCCC/C=C\[C@@H]2C[C@@]2(C(=O)NS(=O)(=O)C2CC2)NC(=O)[C@@H]2C[C@@H](OC(=O)N3Cc4cccc(F)c4C3)CN2C1=O)c1ccc(Cl)cc1` [Compound 413] yielded an IC50 on NS3-NS4 [1] below 100 nM. The EC50 on NS3-NS4 [2] was below 100 nM.

Molecule `O=C1N[C@]2(C(=O)NS(=O)(=O)C3CC3)C[C@H]2/C=C\CCCCC[C@H](NC(=O)N2CCOCC2)C(=O)N2C[C@H](OC(=O)N3Cc4cccc(F)c4C3)C[C@@H]12` [Compound 414] gave an IC50 at NS3-NS4 [1] below 100 nM. In addition, the EC50 at NS3-NS4 [2] fell in the range of 100 to 1000 nM.

On NS3-NS4 [1], `O=C1N[C@]2(C(=O)NS(=O)(=O)C3CC3)C[C@H]2/C=C\CCCCC[C@H](NC(=O)N2CCCCC2)C(=O)N2C[C@H](OC(=O)N3Cc4cccc(F)c4C3)C[C@@H]12` [Compound 415] displayed an IC50 below 100 nM. This molecule also yielded an EC50 at NS3-NS4 [2] below 100 nM.

For the molecule `O=C1N[C@]2(C(=O)NS(=O)(=O)C3CC3)C[C@H]2/C=C\CCCCC[C@H](NC(=O)N2CCC(F)(F)C2)C(=O)N2C[C@H](OC(=O)N3Cc4cccc(F)c4C3)C[C@@H]12` [Compound 416], the 50% inhibitory concentration (IC50) at NS3-NS4 [1] is below 100 nM. On NS3-NS4 [2], the EC50 is 100 to 1000 nM.

As to `O=C1N[C@]2(C(=O)NS(=O)(=O)C3CC3)C[C@H]2/C=C\CCCCC[C@H](NC(=O)N2CCC2)C(=O)N2C[C@H](OC(=O)N3Cc4cccc(F)c4C3)C[C@@H]12` [Compound 417], at NS3-NS4 [1], the IC50 was below 100 nM. The EC50 at NS3-NS4 [2] was below 100 nM.

In the case of `O=C1N[C@]2(C(=O)NS(=O)(=O)C3CC3)C[C@H]2/C=C\CCCCC[C@H](NC(=O)N2CC(F)(F)C2)C(=O)N2C[C@H](OC(=O)N3Cc4cccc(F)c4C3)C[C@@H]12` [Compound 418], at NS3-NS4 [1], the IC50 is below 100 nM. The molecule further gave an EC50 at NS3-NS4 [2] below 100 nM.

In the case of `O=C(C[C@H]1CCCCC/C=C\[C@@H]2C[C@@]2(C(=O)NS(=O)(=O)C2CC2)NC(=O)[C@@H]2C[C@@H](OC(=O)N3Cc4cccc(F)c4C3)CN2C1=O)Oc1ccccc1` [Compound 419], on NS3-NS4 [1], the IC50 is below 100 nM. Also, the EC50 on NS3-NS4 [2] is 100 to 1000 nM.
